In brackets after ≈: the same amount, converted by molar mass. Activity calls are given as the source filed them. The calls are words filed in the database; no cut-off is given here.
Legend:
[1] = system: SMMC-7721; experiment: Induction of apoptosis in human SMMC-7721 cells assessed as necrotic cells at 15 uM incubated for 24 hrs in presence of 3-MA by Annexin V-FITC and propidium iodide staining based flow cytometric analysis (reference value: 0.65 %); format: functional
[2] = system: SMMC-7721; experiment: Antitumor activity against human SMMC-7721 cells xenografted in BALB/c mouse assessed as reduction in tumor growth at 10 mg/kg,ip administrated for 3 weeks; format: functional, organism-based
[3] = system: SMMC-7721; experiment: Induction of apoptosis in human SMMC-7721 cells assessed as downregulation of BCL-2 expression at 15 uM incubated for 24 hrs by Western blotting analysis; format: functional, cell-based
[4] = system: SMMC-7721; experiment: Induction of apoptosis in human SMMC-7721 cells assessed as viable cells at 10 uM incubated for 24 hrs by Annexin V-FITC and propidium iodide staining based flow cytometric analysis (reference value: 99 %); format: functional; settings: read-out: Activity
[5] = system: SMMC-7721; experiment: Induction of apoptosis in human SMMC-7721 cells assessed as necrotic cells at 5 uM incubated for 24 hrs by Annexin V-FITC and propidium iodide staining based flow cytometric analysis (reference value: 0.61 %); format: functional
[6] = system: SMMC-7721; experiment: Induction of apoptosis in human SMMC-7721 cells assessed as necrotic cells at 15 uM incubated for 24 hrs in presence of Nec1 by Annexin V-FITC and propidium iodide staining based flow cytometric analysis (reference value: 0.65 %); format: functional
[7] = system: SMMC-7721; experiment: Induction of apoptosis in human SMMC-7721 cells assessed as viable cells at 15 uM incubated for 24 hrs in presence of 3-MA by Annexin V-FITC and propidium iodide staining based flow cytometric analysis (reference value: 99.2 %); format: functional; settings: read-out: Activity
[8] = Inhibition of PI3K/AKT/mTOR signalling pathway in human SMMC-7721 cells at 10 uM incubated for 24 hrs by transcriptome analysis; format: cell-based
[9] = system: SMMC-7721; experiment: Induction of apoptosis in human SMMC-7721 cells assessed as viable cells at 15 uM incubated for 24 hrs in presence of zVAD by Annexin V-FITC and propidium iodide staining based flow cytometric analysis (reference value: 99.2 %); format: functional; settings: read-out: Activity
[10] = system: SMMC-7721; experiment: Induction of apoptosis in human SMMC-7721 cells assessed as viable cells at 5 uM incubated for 24 hrs by Annexin V-FITC and propidium iodide staining based flow cytometric analysis (reference value: 99 %); format: functional; settings: read-out: Activity
[11] = system: SMMC-7721; experiment: Induction of apoptosis in human SMMC-7721 cells assessed as late apoptotic cells at 20 uM incubated for 24 hrs by Annexin V-FITC and propidium iodide staining based flow cytometric analysis (reference value: 0.14 %); format: functional
[12] = system: SMMC-7721; experiment: Induction of apoptosis in human SMMC-7721 cells assessed as upregulation of Bax/Bcl-2 ratio at 20 uM incubated for 24 hrs by Western blotting analysis; format: functional, cell-based
[13] = system: SMMC-7721; experiment: Induction of apoptosis in human SMMC-7721 cells assessed as upregulation of Bax/Bcl-2 ratio incubated for 24 hrs by Western blotting analysis; format: functional, cell-based
[14] = system: SMMC-7721; experiment: Antitumor activity against human SMMC-7721 cells xenografted in BALB/c mouse assessed as reduction in tumor weight at 10 mg/kg,ip administrated daily for 3 weeks (reference value: 0.573 +/- 0.137 g); format: functional
[15] = system: SMMC-7721; experiment: Induction of apoptosis in human SMMC-7721 cells assessed as early apoptotic cells at 15 uM incubated for 24 hrs in presence of Nec1 by Annexin V-FITC and propidium iodide staining based flow cytometric analysis (reference value: 0.07 %); format: functional
[16] = system: SMMC-7721; experiment: Antitumor activity against human GFP-stained SMMC-7721 cells inoculated in zebrafish larvae assessed as reduction in tumor growth at 5 to 20 uM incubated for 48 hrs by confocal laser scanning microscopy; format: functional, cell-based; settings: dose 5-20 µM
[17] = system: SMMC-7721; experiment: Antitumor activity against human SMMC-7721 cells xenografted in BALB/c mouse assessed as inhibition of tumor growth at 10 mg/kg,ip administrated daily for 3 weeks relative to control; format: functional; parameters: scale not given: the % may be the effect or the level left
[18] = system: SMMC-7721; experiment: Induction of apoptosis in human SMMC-7721 cells assessed as upregulation of Bax expression incubated for 24 hrs by Western blotting analysis; format: functional, cell-based
[19] = Toxicity in BALB/c mouse xenografted with human SMMC-7721 cells assessed as change in body weight at 10 mg/kg,ip administrated daily for 3 weeks; format: organism-based; settings: in vivo, 504 h
[20] = Aqueous solubility of the compound in […] by HPLC analysis; format: physicochemical
[21] = system: SMMC-7721; experiment: Antitumor activity against human SMMC-7721 cells xenografted in BALB/c mouse assessed as reduction in tumor weight at 10 mg/kg,ip administrated for 3 weeks; format: functional, organism-based
[22] = system: PC-3; experiment: Antiproliferative activity against human PC-3 cells assessed as inhibition of cell growth incubated for 48 hrs by CCK-8 reagent based spectrophotometric analysis; format: functional; settings: PC-3, 48 h
[23] = system: SMMC-7721; experiment: Antiproliferative activity against human SMMC-7721 cells assessed as inhibition of cell growth incubated for 48 hrs by CCK-8 reagent based spectrophotometric analysis; format: functional; settings: SMMC-7721, 48 h
[24] = system: SMMC-7721; experiment: Induction of apoptosis in human SMMC-7721 cells assessed as upregulation of LC3 expression incubated for 24 hrs by Western blotting analysis; format: functional, cell-based
[25] = Toxicity in Zebrafish embryo assessed as reduction in survival rate at >= 30 uM incubated for 48 hrs by microscopic analysis relative to control; parameters: species or system Danio rerio; settings: zebrafish embryos
[26] = system: SMMC-7721; experiment: Antitumor activity against human GFP-stained SMMC-7721 cells inoculated in zebrafish larvae assessed as reduction in tumor growth at < 10 uM incubated for 48 hrs by confocal laser scanning microscopy; format: functional, cell-based
[27] = system: SMMC-7721; experiment: Antitumor activity against human GFP-stained SMMC-7721 cells inoculated in zebrafish larvae assessed as reduction in tumor growth by measuring survival rate at 10 uM incubated for 48 hrs by confocal laser scanning microscopy; format: functional

| Compound | Activity [1] | viability at 10 µM [4] | Activity [5] | Activity [6] | viability at 15 µM [7] | viability at 15 µM [9] | viability at 5 µM [10] | Activity [11] | Activity [15] | IC50 [22] | IC50 [23] | further results |
| --- | --- | --- | --- | --- | --- | --- | --- | --- | --- | --- | --- | --- |
| C=C(C)[C@@H]1CC[C@]2(C(=O)OC)CC[C@]3(C)[C@H](CC[C@@H]4[C@@]5(C)C[C@@H](Cc6cn([C@H]7C[C@H](n8cc(C)c(O)nc8=O)O[C@@H]7CO)nn6)C(=O)C(C)(C)[C@@H]5CC[C@]43C)[C@@H]12 | 1.77% | 91.7% | 0.56% | 5.17% | 91.6% | 87.9% | 98.4% | 18.9% | 0.19% | 10.1 µM | 5.02 µM | Activity [2]: Active; Activity [3]: Active; inhibition [8]: Active; Activity [12]: Active; Activity [13]: Dose-Dependent Effect; Activity [14]: 0.275 g; Activity [16]: Active; Activity [17]: 52%; Activity [18]: Dose-Dependent Effect; Activity [19]: Non-Toxic; solubility [20]: 2.56 µM (≈ 1.98 µg/mL); Activity [21]: Active; Activity [24]: Dose-Dependent Effect |
| C=C(C)[C@@H]1CC[C@]2(C(=O)OC)CC[C@]3(C)[C@H](CC[C@@H]4[C@@]5(C)C[C@@H](Cc6cn([C@]7(CO)O[C@@H](n8ccc(O)nc8=O)[C@@H](F)[C@@H]7O)nn6)C(=O)C(C)(C)[C@@H]5CC[C@]43C)[C@@H]12 | 11.2% | 96.2% | 0.69% | 3.24% | 86.2% | 82% | 99% | 17.5% | 0.23% | 22.9 µM | 7.73 µM | survival at 48 h, 30 µM [25]: < 25%; Activity [26]: inactive; Activity [27]: 85% |

Reference: ChEMBL document CHEMBL5608177, “Antitumor activity and transcriptome sequencing (RNA-seq) analyses of hepatocellular carcinoma cells in response to exposure triterpene-nucleoside conjugates” (Eur J Med Chem, 2024)
